According to patent US20250101338A1, “BIOMASS DERIVED SURFACE-ACTIVE COMPOSITIONS AND PRODUCTS” (Cambridge Glycoscience Ltd, priority 2021, published 2025):

What was measured:
Format in all cases: physicochemical
[1] = Water in oil emulsion stability test (Example 65); settings: 0.5 mL water with 2 wt % substance + 1.5 mL sunflower oil, vortex 30 s, visual inspection
Description: 0.5 mL deionized water containing 2 wt % of the stated inventive or comparative compound was added to 1.5 mL commercial, food-grade sunflower oil, in a sample vial. The vials were each agitated with a IKA Vortex mixture for 30 seconds. The vials were left to stand and inspected visually for emulsion quality after 5 minutes, 1 hour, 4 hours and finally 24 h (FIG. 14 and FIG. 15). […] The results also show an unexpected increase in emulsifying performance for the inventive compositions comprising oligosaccharide mixture-derived surface-active agents (such as example 4-6 compositions) compared with those derived from a single monomeric sugar (xylose) alone (such as example 12 and 13 compositions).

[2] = Dynamic foam tests (Example 69); settings: 5 mL of 0.5 wt % aqueous solution, 40 cm^3 air bubbled at 17 cm^3/min
Description: The intensity and approximate decay-rate for the foaming behavior of the surface-active compositions in dilute aqueous solution was determined by dosing 5 mL of 0.5 wt % aqueous solution of surface-active composition to a vertically-aligned 50 m plastic serological pipette (“Stripette”). Air (40 cm^3) was bubbled through the surface-active composition solution at a rate of 17 cm^3/min via a syringe pump and the foam height upon complete addition of air recorded. The foam height was also recorded again 5 min after complete addition of air, 10 min after complete addition of air, 15 m after complete addition of air, 30 min after complete addition of air, 1 hour after complete addition of air and finally 2 hours after complete addition of air.

[3] = Aqueous hydrolytic stability by UPLC-MS (Example 73); settings: 0.5 mg/mL
Description: Determination of aqueous stability of the test compounds was performed using UPLC-MS. A test compound 10 mg/mL stock solution was prepared by dissolving Example 11 composition (N-decyl-N-acetylxylosylamine) (inventive surface-active composition) in DMSO. Buffer solutions, comprised of simple, commercially-available acidic or basic substances in deionized water were prepared at pH 1, pH 3, pH 4, pH 5, pH 6, pH 7, pH 9, pH 11 and pH 13.

[4] = Lipophilic substances solubilization test, lemongrass oil (Example 71); settings: 2 mL of 5 wt % aqueous solution, stepwise addition of 2.5 μL, duplicate
Description: After each addition, the sample was agitated with a vortex mixture for 60 s and left to stand for 5 min. If no heterogenous phase was observed visually, the oil was said to be fully soluble. If a heterogenous, immiscible biphasic or emulsion was visible, then the saturation limit for that surface-active component was said to have been exceeded. Each surface-active composition was tested in duplicate.

[5] = Aqueous solubility noted at preparation
Description: Solid N-decyl xylosylamine (7.6 g) was suspended in 2-propanol (60 mL) and triethylamine (2 equiv.) then acetic anhydride (1.6 equiv.) was added slowly. Stirring continued at ambient temperature for 10 h. Water (50 mL) was added, and the mixture stirred for 5 min. Dichloromethane (50 mL) was added and the phases separated. The aqueous phase was extracted with additional DCM. The combined organic phase washed with saturated aqueous NH4Cl solution, then the aqueous phase extracted with additional DCM. The combined organic phases were dried over anhydrous magnesium sulfate, filtered, then concentrated under reduced pressure to give a yellow oil. The oil was purified by FCC eluting with MeOH (2-15%) in DCM (120 g normal phase silica cartridge with wet loading). Fractions containing the product were combined and evaporated to dryness to give the desired product (4.1 g, 49%) as a yellow gum. LC-MS (Method A), Rt=1.69 min, [M+H]+=332.2. The gum product can be dissolved in water to form solutions of 50 wt % or greater.
The process was carried out in essentially the same manner as in Example 11 a) step (ii) but using the solid product of Example 11 reaction c) step (i) and the crude product was instead purified by FCC eluting with MeOH (2-13%) in DCM. There were obtained 1.4 g of cream gum product. LC-MS (Method A), Rt=1.87 min, [M+H]^+=360.5.

[6] = Critical micellular concentration determination (Example 78); settings: deionized water
Description: Stock solutions were prepared of known weight concentration (range spanning 0.005 wt %-5.000 wt %) of inventive surface-active compositions (by solution of the appropriate weight of example composition in deionized water). For reference, the surface tension of deionized water in the absence of a surface-active composition is 73 mN. […] The surface tensions of the solutions at the concentration of the CMC were also noted. Results are shown in table 10 and graphical results are depicted in FIG. 22.

[7] = Emulsion formation with different oil-water ratios (Example 66); settings: water-oil ratio 1:2.5, groundnut oil, 3.0 wt % composition
Description: The ability of inventive surface-active compositions to stabilize emulsions in different mass-ratios of vegetable oil and water was investigated. Mixtures of water, vegetable oil and inventive surface-active composition were prepared as per table below, by adding groundnut oil, water, and surface-active composition in the desired mass ratio. The mixtures were heated at 60 C in a homogenizer (stirring for 10 minutes at 800 rpm, then further homogenized at this speed and ambient temperature for 5 min). The visual appearance of each mixture was acknowledged. The mixtures were then treated by centrifugation at 1500 rpm for 5 mi and the visual appearance was again acknowledged.

[8] = Relative viscosity, gravity flow time (Example 74); settings: 10 mL of 10 wt % sodium dodecyl sulfate + 0.3 g NaCl + 0.655 mL of 30 wt % test solution, 27° C., triplicate
Description: The time taken for precisely 3 mL of testing mixture to pass out of the […] by gravity was recorded. The test was repeated in triplicate. Averaged results are depicted in FIG. 20 and table 9. It was unexpected that example 11 composition recorded such high viscosity over example 14 composition, which differs by a slightly smaller alkyl chain (octyl instead of decyl).

**Q.** Which “Time inspected by which the emulsion first appeared dispersed” value [1] does the source give for `CCCCCCCCCCN(C(C)=O)C1OC[C@@H](O)[C@H](O)[C@H]1O` (stereo partly drawn) [Example 11 composition, N-decyl N-acetyl xylosylamine] here?
**A.** The value was 24 h.

**Q.** What about the “Volume of foam after given time” value ([2]; 0 min) of the same compound?
**A.** The value was 36.0 cm^3.

**Q.** And the “Volume of foam after given time” value ([2]; 5 min)?
**A.** The value was 2.0 cm^3.

**Q.** What about the “Volume of foam after given time” value ([2]; 15 min) of the same compound?
**A.** Its value is 2.0 cm^3.

**Q.** What about the “Volume of foam after given time” value ([2]; 30 min) of the same compound?
**A.** The value was 2.0 cm^3.

**Q.** And the “Volume of foam after given time” value ([2]; 1 h)?
**A.** The value was 2.0 cm^3.

**Q.** What about the “Volume of foam after given time” value ([2]; 2 h) of the same compound?
**A.** Its value is 2.0 cm^3.

**Q.** What about the “Stability During 1-week (daily monitoring) (% of original concentration lost to degradation)” value ([3]; Buffer pH 1, 25° C.) of the same compound?
**A.** Its value is “(<50%)”.

**Q.** What about the “Stability During 12-hour Assay (% of original concentration lost to degradation)” value ([3]; Buffer pH 1, 25° C.) of the same compound?
**A.** The value was “(<1%) degradation”.

**Q.** And the “Stability During 1-week (daily monitoring) (% of original concentration lost to degradation)” value ([3]; Buffer pH 3, 25° C.)?
**A.** The value was “(<0.1%) degradation”.

**Q.** What about the “Stability During 12-hour Assay (% of original concentration lost to degradation)” value ([3]; Buffer pH 3, 25° C.) of the same compound?
**A.** Its value is “(<0.1%) degradation”.

**Q.** What about the “Stability During 1-week (daily monitoring)” value ([3]; Buffer pH 4, 25° C.) of the same compound?
**A.** The value was “Full stability”.

**Q.** And the “Stability During 12-hour Assay” value ([3]; Buffer pH 4, 25° C.)?
**A.** The value was “Full stability”.

**Q.** And the “Stability During 1-week (daily monitoring)” value ([3]; Buffer pH 5, 25° C.)?
**A.** Its value is “Full stability”.

**Q.** And the “Stability During 12-hour Assay” value ([3]; Buffer pH 5, 25° C.)?
**A.** Its value is “Full stability”.

**Q.** What about the “Stability During 1-week (daily monitoring)” value ([3]; Buffer pH 6, 25° C.) of the same compound?
**A.** Its value is “Full stability”.

**Q.** And the “Stability During 12-hour Assay” value ([3]; Buffer pH 6, 25° C.)?
**A.** The value was “Full stability”.

**Q.** And the “Stability During 1-week (daily monitoring)” value ([3]; Buffer pH 7, 25° C.)?
**A.** Its value is “Full stability”.

**Q.** And the “Stability During 12-hour Assay” value ([3]; Buffer pH 7, 25° C.)?
**A.** Its value is “Full stability”.

**Q.** What about the “Stability During 1-week (daily monitoring)” value ([3]; Buffer pH 9, 25° C.) of the same compound?
**A.** Its value is “Full stability”.

**Q.** What about the “Stability During 12-hour Assay” value ([3]; Buffer pH 9, 25° C.) of the same compound?
**A.** Its value is “Full stability”.

**Q.** And the “Stability During 1-week (daily monitoring) (% of original concentration lost to degradation)” value ([3]; Buffer pH 11, 25° C.)?
**A.** The value was “(<0.1%) degradation”.

**Q.** And the “Stability During 12-hour Assay (% of original concentration lost to degradation)” value ([3]; Buffer pH 11, 25° C.)?
**A.** Its value is “(<0.1%) degradation”.

**Q.** And the “Stability During 1-week (daily monitoring) (% of original concentration lost to degradation)” value ([3]; Buffer pH 13, 25° C.)?
**A.** Its value is “(<10%)”.

**Q.** What about the “Stability During 12-hour Assay (% of original concentration lost to degradation)” value ([3]; Buffer pH 13, 25° C.) of the same compound?
**A.** The value was “(<0.1%) degradation”.

**Q.** What about the “Maximum volume of lemongrass oil solubilized” value [4] of the same compound?
**A.** Its value is 8.75 µL.

**Q.** And the “Concentration of solutions formed in water” value ([5]; gum product dissolved in water)?
**A.** Its value is at least 50 wt %.

**Q.** And the “Aqueous solubility (in words)” value ([5]; water, room temperature)?
**A.** The value was “excellent aqueous solubility”.

**Q.** What about the “Solution Surface tension at CMC” value [6] of the same compound?
**A.** Its value is 36 mN.

**Q.** What about the CMC ([6]; from surface tension at 0.005-5.000 wt %) of the same compound?
**A.** The CMC was 0.04 wt %.

**Q.** What about the “Visual interpretation of results, after centrifugation” value ([7]; 1500 rpm 5 min) of the same compound?
**A.** The value was “Complete phase-separation”.

**Q.** What about the “Visual interpretation of results, before centrifugation” value ([7]; homogenized at 60 C) of the same compound?
**A.** Its value is “Emulsion failed to form”.

**Q.** What about the “Average time (for 3 mL to pass out of the stripette by gravity)” value [8] of the same compound?
**A.** Its value is 270.3 s.
